We go through one compound from US20210322412A1, “METHODS AND COMPOSITIONS FOR TREATING A CORONAVIRUS INFECTION” (priority 2020, published 2021).

Data set [1] deals with human CCR5 receptors (Homo sapiens, UniProt P51681). Kind of data set: CCR5 inhibitory activity. In kind it is binding. Conditions: Receptor CCR5. On the procedure: (§1) The CCR2 and CCR5 inhibitory activity of (4-((3R,4R)-3-methoxytetrahydro-pyran-4-ylamino)piperidin-1-yl)(5-methyl-6-(((2R,6S)-6-(p-tolyl)tetrahydro-2H-pyran-2-yl)methylamino)pyrimidin-4-yl)methanone citrate was evaluated against human CCR2 receptors and human CCR5 receptors.
Sequence of human CCR5 receptors (P51681 whole entry): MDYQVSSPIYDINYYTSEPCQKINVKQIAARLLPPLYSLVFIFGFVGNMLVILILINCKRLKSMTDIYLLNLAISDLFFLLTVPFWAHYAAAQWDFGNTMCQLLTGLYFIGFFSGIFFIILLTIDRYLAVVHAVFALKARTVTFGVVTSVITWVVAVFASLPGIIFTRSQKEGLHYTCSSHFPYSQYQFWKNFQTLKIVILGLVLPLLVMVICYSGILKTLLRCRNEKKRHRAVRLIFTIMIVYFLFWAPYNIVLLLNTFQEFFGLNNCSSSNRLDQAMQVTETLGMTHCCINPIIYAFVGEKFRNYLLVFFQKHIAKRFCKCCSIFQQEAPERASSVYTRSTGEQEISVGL

Data set [2] is described as follows: Sorption behavior (dynamic vapour sorption isotherms). It counts as physicochemical. On the procedure:
Sorption isotherms were generated using an IGAsorp water sorption monitor from Hiden Isochema. Adsorption and desorption isotherms were obtained at 25° C. with 10% r.h. step intervals ranging from 10% r.h. to 90% r.h.
For BR salt form only: Sorption isotherms were registered on a DVS-1 water sorption monitor from Surface Measurement Systems.

Data set [3] deals with human CCR2 receptors (Homo sapiens, UniProt P41597). The data set is described as follows: CCR2 inhibitory activity. In kind it is binding. The conditions noted are these: Receptor CCR2. On the procedure: as §1
Sequence of human CCR2 receptors (P41597 whole entry): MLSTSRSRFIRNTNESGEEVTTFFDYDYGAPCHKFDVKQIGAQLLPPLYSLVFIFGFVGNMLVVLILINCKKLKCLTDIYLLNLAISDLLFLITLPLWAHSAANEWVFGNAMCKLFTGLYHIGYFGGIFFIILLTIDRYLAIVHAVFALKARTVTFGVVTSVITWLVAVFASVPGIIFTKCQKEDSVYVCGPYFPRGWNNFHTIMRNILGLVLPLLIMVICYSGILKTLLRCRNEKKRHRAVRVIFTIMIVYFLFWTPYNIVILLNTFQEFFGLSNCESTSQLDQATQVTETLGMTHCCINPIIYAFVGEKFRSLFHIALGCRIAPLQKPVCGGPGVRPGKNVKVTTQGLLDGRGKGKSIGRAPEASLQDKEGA

Consider `CO[C@H]1COCC[C@H]1NC1CCN(C(=O)c2ncnc(NC[C@H]3CCC[C@@H](c4ccc(C)cc4)O3)c2C)CC1.O=C(O)CC(O)(CC(=O)O)C(=O)O` [Compound 1, (4-((3R,4R)-3-Methoxytetrahydro-pyran-4-ylamino)piperidin-1-yl)(5-methyl-6-(((2R,6S)-6-(p-tolyl)tetrahydro-2H-pyran-2-yl)methylamino)pyrimidin-4-yl)methanone citrate], for which the IC50 in data set [1] is 88 nM; in data set [3], 50 nM. The Ki in data set [1] was found to be 75 nM; in data set [3] it was 4.2 nM. Further, in data set [2] (after the sorption experiment), the “state of the compound after the sorption experiment” value was “still remains as solid material”. Moreover, the “stability against relative humidity” value in data set [2] (relative humidity, 25° C.) was “up to 80%”. The uptake of water in data set [2] (sorption experiment, relative humidity up to 80%, uptake reversible) turned out to be 2.6%.
